# US7932262B2 (Novartis AG, priority 2006, dated 2011)
# Read-outs that look alike come from different tables or passages of the source.
# What was measured:
# PDK1 kinase = biological target: T1, PDK1 kinase (Homo sapiens, UniProt O15530); experiment: PDK1 Kinase Alpha Screen Assay; format: biochemical; details: PDK1 Kinase Alpha Screen Assay; read-out: PDK1 IC50
# T1 sequence (O15530 1-556): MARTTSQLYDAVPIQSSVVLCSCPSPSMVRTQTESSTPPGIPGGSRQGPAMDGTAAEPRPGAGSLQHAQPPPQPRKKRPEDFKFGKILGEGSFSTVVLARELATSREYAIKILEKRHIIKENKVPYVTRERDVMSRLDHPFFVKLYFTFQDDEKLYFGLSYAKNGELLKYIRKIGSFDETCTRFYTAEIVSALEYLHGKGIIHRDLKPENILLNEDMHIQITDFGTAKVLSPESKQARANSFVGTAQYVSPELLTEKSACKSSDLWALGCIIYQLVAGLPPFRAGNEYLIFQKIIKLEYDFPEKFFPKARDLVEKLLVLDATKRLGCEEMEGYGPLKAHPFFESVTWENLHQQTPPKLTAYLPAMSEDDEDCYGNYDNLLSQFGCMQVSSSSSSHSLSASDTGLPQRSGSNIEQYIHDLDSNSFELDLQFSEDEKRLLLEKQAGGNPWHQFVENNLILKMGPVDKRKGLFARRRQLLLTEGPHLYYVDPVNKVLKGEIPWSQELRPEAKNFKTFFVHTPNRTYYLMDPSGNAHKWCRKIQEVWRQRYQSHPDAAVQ
# Outline: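 Compound in DMSO added to PDK1-4 peptide; PDK1/ATP mix starts reaction (final 50 nM peptide, 10 uM ATP). Runs 3-18 hours, stopped with 90 mM EDTA buffer. Antibody/bead mix added, developed overnight at room temperature, then AlphaScreen signal read.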
# A2780 cells = experiment: Cell Proliferation Assay (Cell Titer Glo), A2780; format: cell-based; details: Homo sapiens, read-out: CPEC50 A2780
# Outline: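 Cells seeded at 1000/well, allowed to adhere 3-5 h, then exposed to DMSO-dissolved compounds for 3 days at 37° C., 5% CO2. Medium replaced before Cell Titer Glo addition; luminescence read after 10 min.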
# [1] = Cell Proliferation Assay, A2780
# [2] = cell proliferation, A2780 cells
SMILES,IC50 (PDK1 kinase) [µM],EC50 (A2780 cells; [1]) [µM],EC50 (A2780 cells; [2]) [µM]
"CNC(=O)c1ccc2cnc(Nc3ccc(S(N)(=O)=O)cc3)nc2c1 [Compound 561, N-methyl-2-(4-sulfamoylphenylamino)quinazoline-7-carboxamide]",< 5,< 5,–
"Cc1cc(S(N)(=O)=O)ccc1Nc1ncc2cccc(OC(C)C)c2n1 [Compound 562, 4-(8-isopropoxyquinazolin-2-ylamino)-3-methylbenzenesulfonamide]",10 to 25,< 5,–
"NC(=O)c1ccc2cnc(Nc3ccc(S(N)(=O)=O)cc3)nc2c1 [Compound 564, 2-(4-sulfamoylphenylamino)quinazoline-7-carboxamide]",< 5,< 5,–
"NS(=O)(=O)c1ccc(Nc2ncc3cccc(C(=O)O)c3n2)cc1 [Compound 622, 2-(4-sulfamoylphenylamino)quinazoline-8-carboxylic acid]",5 to 10,5 to 10,–
"CC(C)NC(=O)c1cccc2cnc(Nc3ccc(S(N)(=O)=O)cc3)nc12 [Compound 624, N-isopropyl-2-(4-sulfamoylphenylamino)quinazoline-8-carboxamide]",< 5,< 5,–
"NC(=O)c1ccc(COc2cccc3cnc(Nc4ccc(S(N)(=O)=O)cc4)nc23)cc1 [Compound 628, 4-((2-(4-sulfamoylphenylamino)quinazolin-8-yloxy)methyl)benzamide]",< 5,5 to 10,–
"COc1ccc2cnc(Nc3ccc(S(N)(=O)=O)cc3)nc2c1 [Compound 629, 4-(7-methoxyquinazolin-2-ylamino)benzenesulfonamide]",< 5,< 5,–
"CN(C)CCOc1ccc2cnc(Nc3ccc(S(N)(=O)=O)cc3)nc2c1 [Compound 630, 4-(7-(2-(dimethylamino)ethoxy)quinazolin-2-ylamino)benzenesulfonamide]",< 5,5 to 10,–
"NS(=O)(=O)c1ccc(Nc2ncc3ccc(OCC4CCNCC4)cc3n2)cc1 [Compound 631, 4-(7-(piperidin-4-ylmethoxy)quinazolin-2-ylamino)benzenesulfonamide]",< 5,< 5,–
"NS(=O)(=O)c1ccc(Nc2ncc3ccc(OCCC4CCNCC4)cc3n2)cc1 [Compound 632, 4-(7-(2-(piperidin-4-yl)ethoxy)quinazolin-2-ylamino)benzenesulfonamide]",< 5,< 5,–
"CC(C)Cn1cc(-c2ccc3cnc(Nc4ccc(S(N)(=O)=O)cc4)nc3c2)cn1 [Compound 849, 4-(7-(1-isobutyl-1H-pyrazol-4-yl)quinazolin-2-ylamino)benzenesulfonamide]",< 5,–,< 5
"NS(=O)(=O)c1ccc(Nc2ncc3ccc(-c4ccnc(NCCN5CCCC5)c4)cc3n2)cc1 [Compound 850, 4-(7-(2-(2-(pyrrolidin-1-yl)ethylamino)pyridin-4-yl)quinazolin-2-ylamino)benzenesulfonamide]",< 5,–,5 to 10
"Nc1ccc(-c2ccc3cnc(Nc4ccc(S(N)(=O)=O)cc4)nc3c2OC2CCNCC2)cn1 [Compound 856, 4-(7-(6-aminopyridin-3-yl)-8-(piperidin-4-yloxy)quinazolin-2-ylamino)benzenesulfonamide]",< 5,–,< 5
"NS(=O)(=O)c1ccc(Nc2ncc3ccc(-c4cn[nH]c4)c(OC4CCNCC4)c3n2)cc1 [Compound 859, 4-(8-(piperidin-4-yloxy)-7-(1H-pyrazol-4-yl)quinazolin-2-ylamino)benzenesulfonamide]",< 5,–,< 5
"NS(=O)(=O)c1ccc(Nc2ncc3ccc(-c4ncco4)c(OC4CCNCC4)c3n2)cc1 [Compound 861, 4-(7-(oxazol-2-yl)-8-(piperidin-4-yloxy)quinazolin-2-ylamino)benzenesulfonamide]",< 5,–,< 5
"NS(=O)(=O)c1ccc(Nc2ncc3ccc(-c4nccs4)c(OC4CCNCC4)c3n2)cc1 [Compound 862, 4-(8-(piperidin-4-yloxy)-7-(thiazol-2-yl)quinazolin-2-ylamino)benzenesulfonamide]",< 5,–,< 5
"NS(=O)(=O)c1ccc(Nc2ncc3ccc(-c4ccccn4)c(OC4CCNCC4)c3n2)cc1 [Compound 863, 4-(8-(piperidin-4-yloxy)-7-(pyridin-2-yl)quinazolin-2-ylamino)benzenesulfonamide]",< 5,–,< 5
"N#Cc1ccc2cnc(Nc3ccc(S(N)(=O)=O)cc3)nc2c1OC1CCNCC1 [Compound 864, 4-(7-cyano-8-(piperidin-4-yloxy)quinazolin-2-ylamino)benzenesulfonamide]",< 5,–,< 5
"Cc1n[nH]c(C)c1-c1ccc2cnc(Nc3ccc(S(N)(=O)=O)cc3)nc2c1 [Compound 865, 4-(7-(3,5-dimethyl-1H-pyrazol-4-yl)quinazolin-2-ylamino)benzenesulfonamide]",< 5,–,< 5
"NS(=O)(=O)c1ccc(Nc2ncc3ccc(-c4cnoc4)cc3n2)cc1 [Compound 866, 4-(7-(isoxazol-4-yl)quinazolin-2-ylamino)benzenesulfonamide]",< 5,–,< 5
"Cc1noc(C)c1-c1ccc2cnc(Nc3ccc(S(N)(=O)=O)cc3)nc2c1 [Compound 867, 4-(7-(3,5-dimethylisoxazol-4-yl)quinazolin-2-ylamino)benzenesulfonamide]",< 5,–,< 5
"O=S(=O)(c1ccc(Nc2ncc3ccc(-c4cn[nH]c4)cc3n2)cc1)N1CCOCC1 [Compound 868, N-(4-(morpholinosulfonyl)phenyl)-7-(1H-pyrazol-4-yl)quinazolin-2-amine]",< 5,–,< 5
"CN1CCC(c2c(O)ccc3cnc(Nc4ccc(S(N)(=O)=O)cc4)nc23)CC1 [Compound 870, 4-(7-hydroxy-8-(1-methylpiperidin-4-yl)quinazolin-2-ylamino)benzenesulfonamide]",< 5,–,< 5
"NS(=O)(=O)c1ccc(Nc2ncc3cccc(CN4CCOCC4)c3n2)cc1 [Compound 872, 4-(8-(morpholinomethyl)quinazolin-2-ylamino)benzenesulfonamide]",< 5,–,< 5

# Results, then the compound that gave them:
IC50 (PDK1 kinase) [µM],EC50 (A2780 cells; [1]) [µM],EC50 (A2780 cells; [2]) [µM],SMILES
< 5,5 to 10,–,"NS(=O)(=O)c1ccc(Nc2ncc3ccc(C(=O)O)cc3n2)cc1 [Compound 559, 2-(4-sulfamoylphenylamino)quinazoline-7-carboxylic acid]"
5 to 10,–,< 5,"NS(=O)(=O)c1ccc(Nc2ncc3ccc(-c4ccnc(N5CCCC5)c4)cc3n2)cc1 [Compound 851, 4-(7-(2-(pyrrolidin-1-yl)pyridin-4-yl)quinazolin-2-ylamino)benzenesulfonamide]"
< 5,–,< 5,"NS(=O)(=O)c1ccc(Nc2ncc3ccc(-c4ccnc(N5CCOCC5)c4)cc3n2)cc1 [Compound 852, 4-(7-(2-morpholinopyridin-4-yl)quinazolin-2-ylamino)benzenesulfonamide]"
< 5,–,< 5,"NS(=O)(=O)c1ccc(Nc2ncc3ccc(-c4cccnc4)c(OC4CCNCC4)c3n2)cc1 [Compound 853, 4-(8-(piperidin-4-yloxy)-7-(pyridin-3-yl)quinazolin-2-ylamino)benzenesulfonamide]"
< 5,–,5 to 10,"NC(=O)c1ccc(-c2ccc3cnc(Nc4ccc(S(N)(=O)=O)cc4)nc3c2OC2CCNCC2)cc1 [Compound 854, 4-(8-(piperidin-4-yloxy)-2-(4-sulfamoylphenylamino)quinazolin-7-yl)benzamide]"
< 5,–,5 to 10,"NS(=O)(=O)c1ccc(Nc2ncc3ccc(-c4ccncc4)c(OC4CCNCC4)c3n2)cc1 [Compound 855, 4-(8-(piperidin-4-yloxy)-7-(pyridin-4-yl)quinazolin-2-ylamino)benzenesulfonamide]"
< 5,–,5 to 10,"Nc1ncc(-c2ccc3cnc(Nc4ccc(S(N)(=O)=O)cc4)nc3c2OC2CCNCC2)cn1 [Compound 857, 4-(7-(2-aminopyrimidin-5-yl)-8-(piperidin-4-yloxy)quinazolin-2-ylamino)benzenesulfonamide]"
< 5,–,< 5,"COc1cncc(-c2ccc3cnc(Nc4ccc(S(N)(=O)=O)cc4)nc3c2OC2CCNCC2)c1 [Compound 858, 4-(7-(5-methoxypyridin-3-yl)-8-(piperidin-4-yloxy)quinazolin-2-ylamino)benzenesulfonamide]"
< 5,–,< 5,"Cn1cc(-c2ccc3cnc(Nc4ccc(S(N)(=O)=O)cc4)nc3c2OC2CCNCC2)cn1 [Compound 860, 4-(7-(1-methyl-1H-pyrazol-4-yl)-8-(piperidin-4-yloxy)quinazolin-2-ylamino)benzenesulfonamide]"
< 5,–,< 5,"CN1CCN(Cc2cccc3cnc(Nc4ccc(S(N)(=O)=O)cc4)nc23)CC1 [Compound 871, 4-(8-((4-methylpiperazin-1-yl)methyl)quinazolin-2-ylamino)benzenesulfonamide]"
